Reference: ChEMBL document CHEMBL1128772, “Methylenedioxyphenyl substituted compounds from Piper species as inhibitors of liver microsome-mediated aflatoxin B1-DNA binding in vitro” (Bioorg Med Chem Lett, 1995)

Legend:
Nucleic Acid [1] = assay: Tested in vitro for inhibition of rat liver microsome-mediated AFB1-DNA at concentration of 10 uM; format: microsomes
Nucleic Acid [2] = assay: In vitro binding affinity to rat liver microsome-mediated AFB1-DNA using [3H]- AFB1 radioligand assay at concentration of 10 uM; format: microsomes
Nucleic Acid [3] = assay: In vitro binding affinity to rat liver microsome-mediated AFB1-DNA using [3H]- AFB1 radioligand assay at concentration of 50 uM
Nucleic Acid [4] = assay: Tested in vitro for inhibition of rat liver microsome-mediated AFB1-DNA at concentration of 100 uM; format: microsomes
Nucleic Acid [5] = assay: Tested in vitro for inhibition of rat liver microsome-mediated AFB1-DNA at concentration of 50 uM; format: microsomes
Nucleic Acid [6] = assay: In vitro binding affinity to rat liver microsome-mediated AFB1-DNA using [3H]- AFB1 radioligand assay at concentration of 100 uM; format: microsomes

Compound | inhibition (Nucleic Acid [1]) [%] | Binding (pM 30min-1 (mg of DNA)-1) (Nucleic Acid [2]) | Binding (pM 30min-1 (mg of DNA)-1) (Nucleic Acid [3]) | inhibition (Nucleic Acid [4]) [%] | inhibition (Nucleic Acid [5]) [%] | Binding (pM 30min-1 (mg of DNA)-1) (Nucleic Acid [6])
C=CCC1=C[C@@](OC)([C@H](C)Cc2ccc3c(c2)OCO3)C(OC)=CC1=O | 11 | 124 | 123 | 13 | 12 | 122
C=CCC1=C[C@]2(OC)[C@H](C)[C@@H](c3ccc4c(c3)OCO4)O[C@]2(OC)CC1=O | 9 | 127 | 110 | 23 | 21 | 108
C=CCC1=C[C@]2(OC)[C@H](C)[C@@H](c3ccc4c(c3)OCO4)O[C@]2(OC)C[C@@H]1O | 31 | 91 | 48 | 81 | 64 | 24.8
O=C(/C=C/C=C/c1ccc2c(c1)OCO2)N1CCCCC1 | 27 | 96.6 | 70 | 57 | 47 | 56.6
c1cc2c(cc1[C@H]1OC[C@H]3[C@@H]1CO[C@H]3c1ccc3c(c1)OCO3)OCO2 | 21 | 105 | 76.5 | 48 | 42 | 68.2
COC(=O)/C=C/C=C/c1ccc2c(c1)OCO2 | 16 | 110 | 76 | 61 | 42 | 50.7
